Measured values reported in patent US20150030683A1, “FORMULATIONS AND METHODS FOR THE TREATMENT OR PROPHYLAXIS OF PRE-MCI AND/OR PRE-ALZHEIMER'S CONDITIONS” (BUCK INSTITUTE FOR RESEARCH ON AGING, priority 2012, published 2015).

How the values were obtained:
[1] = Brain uptake testing (PK): plasma and brain levels by LC/MS/MS; design: species or system mice; conditions: mouse, in vivo, sc; for Kp: 10 mg/kg
Protocol: In general, CNS exposure studies consisted of collection of heparinized plasma and brains after treatment with tropisetron, nimetazepam, disulfiram and honokiol following subcutaneous (sc) administration of the molecules at 10 mg/kg. Plasma and brain levels of the agent(s) were determined by quantitative LC/MS/MS methodology, conducted at Integrated Analytical Solutions (on the internet at ianalytical.net). Plasma samples were precipitated with acetonitrile:methanol (1:1) cocktail containing an internal standard. The brain samples were homogenized directly in ethylacetate or extracted from 5M guanidine homogenates using the liquid-liquid method. The resulting supernatant were evaporated to dryness and subjected to the LC/MS/MS analysis. For each agent 3 mice were used for analysis. The brain-to-plasma ratios and brain levels were then be calculated to identify the best candidate(s) for further testing.

[2] = test system: sAPPα, Aβ40 and Aβ42 levels; assay: Aβ40/42, sAPPα levels in brain (PD) of Alzheimer's disease transgenic mice (PDAPP model); type: in vivo; conditions: Tg mice; for Aβ40 levels / Aβ42 levels / sAPPα levels in hippocampus (Hip) and entorhinal cortex (ECx): 10 mpk sc, 5 days
Protocol: […]® kits from Perkin Elmer (PE) were used to quantify sAPPα (cat#: AL254C), sAPPβ (cat#: AL232C), Aβ40 (cat #: AL275C), Aβ42 (cat #: AL276C) and Tau (cat#: AL271C) from brain homogenates. The samples are added to an AlphaPlate-384 (cat#: 6005350). Twenty microliters (μl) of acceptor bead antibody mix was added to each five μl cerebrospinal fluid (CSF) sample and allowed to incubate for one hour at room temperature. Next, 25 μl of donor beads were added and allowed to incubate in the dark for 30 minutes at room temperature. Fluorescence was then measured on an EnsPire 96-well plate reader (Perkin-Elmer).
ELISA kits from Invitrogen were also used to quantify Aβ1-40 (KHB3481) and Aβ1-42 (KHB3544) in duplicate from the CSF samples stored at −80° C. For assay, samples were thawed on ice and BSL-2 precautions practiced at all times. For the human Aβ 1-42 ultrasensitive ELISA, samples were diluted 1:2 (50 μl CSF plus 50 μl kit-provided standard diluent buffer). For the human Aβ1-40 ELISA, samples were diluted 1:15 (6.7 μl CSF plus […] of standard diluent buffer). Assays were performed according to manufacturer's instructions. In short, standards and samples were added to a plate pre-coated with a monoclonal capture antibody specific for the amino terminus of Hu Aβ. The samples were co-incubated with a rabbit detection antibody (Ab) specific for the carboxy terminus of the Aβ species being assayed for 3 hr at room temperature (Aβ 1-40) to overnight at 4° (Aβ 1-42) with gentle rocking After washing, bound rabbit Ab was detected using a horseradish peroxidase-labeled anti-rabbit secondary Ab. After washing again, bound HRP-anti rabbit Ab was detected colorimetrically (Spectramax 190, Molecular Devices) by the addition of a substrate solution. 1 mM 4-(2-Aminoethyl)benzenesulfonyl fluoride hydrochloride (AEBSF) protease inhibitor (101500, Calbiochem) was added to standards and samples.
In general, as part of the CNS exposure studies in Alzheimer's disease transgenic (Tg) mice (e.g., the PDAPP mouse model of Alzheimer's disease), tropisetron, nimetazepam, disulfiram and honokiol effects on biomarkers were also measured. In case of tropisetron the testing was done at 0.3 mpk, while in case of the other agent(s) (e.g., nimetazepam, disulfiram and honokiol) it was done at 10 mpk. From the collected brains the hippocampi were dissected. Levels of sAPPα, and Aβ1-40 and Aβ1-42 were measured by […] assay ([…] Perkin-Elmer), and Aβ1-42 (Invitrogen, sensitive ELISA kit) in brain homogenates of Tg mice. All procedures involved have been described (Galavan 2006, Proc Natl Acad Sci USA, 103, 7130-7135). […] The brain-to-plasma ratio (PK) of tropisetron and sAPPalpha/Aβ42 ratios (PD) were then determined.

[3] = known for the benzodiazepine; cited from earlier work
[4] = Degradation in brain tissue; type: in vitro ADME; conditions: probably reduced at the disulfide bond
[5] = target: T1, MBP-eAPP230-624 (Homo sapiens, UniProt P05067); assay: Small-angle X-ray scattering of MBP-eAPP230-624 incubated with the agent; type: binding; conditions: for MWcalc/MWseq / Rg (radius of gyration) / Dmax (maximum dimension): MBP-eAPP230-624 incubated with 50 μM agent, 4° C., 1 hour; for MWcalc/MWseq: ± 0.2; for Rg (radius of gyration): ± 2; for Dmax (maximum dimension): ± 10; for Binding to APP (MBP-eAPP230-624) and effect on conformation/dimerization: small-angle X-ray scattering, 50 μM agent
T1 construct: purified MBP-eAPP230-624 were incubated with 50 μM Disulfiram or 50 μM Sulfiram
T1 sequence (P05067 230-624 isoform P05067-4): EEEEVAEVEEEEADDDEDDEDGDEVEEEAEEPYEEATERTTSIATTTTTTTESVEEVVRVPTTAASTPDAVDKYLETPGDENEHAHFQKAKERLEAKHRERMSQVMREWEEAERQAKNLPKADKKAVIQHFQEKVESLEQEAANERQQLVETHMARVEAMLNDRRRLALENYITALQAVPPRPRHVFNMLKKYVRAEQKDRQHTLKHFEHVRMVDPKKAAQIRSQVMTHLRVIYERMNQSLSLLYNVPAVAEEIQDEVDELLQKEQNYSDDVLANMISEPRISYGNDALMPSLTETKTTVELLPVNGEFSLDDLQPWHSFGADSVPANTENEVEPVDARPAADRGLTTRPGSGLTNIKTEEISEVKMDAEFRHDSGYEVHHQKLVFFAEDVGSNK
Protocol: To 100 μg of purified MBP-eAPP230-624 were incubated with 50 μM Disulfiram or 50 μM Sulfiram in 20 mM sodium phosphate pH 7.4, 137 mM sodium chloride, 0.05% dimethyl sulfoxide at 4° C. for 1 hour. The control sample was incubated in the buffer alone. The samples were then concentrated to approximately 1.5 mg/ml using […] NML concentrators. Small-angle X-ray scattering data were collected using protein concentrations in the range of 0.25-1.5 mg/ml and an X-ray wavelength of 1.11 Å at beam line 12.3.1 (Advanced Light Source). Samples of the filtrate were used for buffer subtraction. Data were integrated with software customized for the beam line and processed with the program PRIMUS (Konarev (2003) Journal of Applied Crystallography 36, 1277-1282). The program GNOM (Svergun (1992) J. Appl. Crystallogr. 25, 495-503) was used to calculate the maximum dimension and the radius of gyration and to estimate the intensity of the scattering at zero angle for higher concentration samples. The molecule weight of each protein was calculated by comparing to the scattering of proteins of known molecule weight.
The apparent drop in molecular weight and maximum dimension (Dmax) are consistent with both sulfiram and disulfiram disrupting the MBP-eAPP230-624 dimers.

[6] = test system: 7W cells stably transfected with APP; assay: […] assay in 7W APP transfected cells; type: cell-based; conditions: 1 μM agent, 24 h
Protocol: 7W CHO cells were seeded at 50,000 cells/well in a 96 wells plate for 24 h. Then their medium was changed for fresh medium supplemented with 1 μM of the agent(s) of interest (e.g., tropisetron, disulfiram, honokiol, and/or nimetazepam). After 24 h, 20 μl of the medium was added to 2 μl of the complete protease inhibitor with 1 μM EDTA and kept at 4° C. until analysis. 2 μl of that medium was treated with the Perkin Elmer (PE) […]® Aβ kit to determine the amount of Aβ42 secreted by the cells in 24 h using the PE-Enspire reader. Another aliquot of 2 μl of the medium was diluted with 50 μl of the PE […]® buffer and was treated with the PE […]® sAPPαkit to determine the amount of sAPPαsecreted by the cells in 24 h. For the assay, 2 μl of the final mixture was treated with the acceptor bead and the donor antibody followed by addition of the donor beads and the […]® signal was measured using a PE-Enspire reader. For measurement of APPneo, the 50,000 cells were treated after seeding with fresh medium supplemented with or without the agent(s), but without fetal bovine serum (FBS), in order to induce the formation of the APPneo fragment. After 24 h the medium was removed, the cells on the bottom of the wells were washed three times with phosphate buffered saline (PBS) and then lysed with 50 μl of the Perkin Elmer […]® buffer and with 10% of the complete protease inhibitor with EDTA. […]

| Structure (SMILES) | blood-brain-barrier / brain penetration [1] | Kp [1] | Aβ40 levels [2] | Aβ42 levels [2] | sAPPα levels in hippocampus (Hip) and entorhinal cortex (ECx) [2] | blood-brain-barrier crossing [3] | sAPPα levels in hippocampus (Hip) and entorhinal cortex (ECx) ([2]; 10 mg/kg) | sAPPα levels in hippocampus (Hip) and entorhinal cortex (ECx) ([2]; listed as nimetazepam, 10 mg/kg) | Aβ levels ([2]; 10 mpk) | Stability in brain tissue [4] | MWcalc/MWseq [5] | Rg (radius of gyration) [5] [Å] | Dmax (maximum dimension) [5] [Å] | Binding affinity compared with sulfiram ([5]; inferred from greater effect in X-ray scattering) | Binding to APP (MBP-eAPP230-624) and effect on conformation/dimerization [5] | Binding to APP (MBP-eAPP230-624) and effect on conformation/dimerization ([5]; listed as disulfiram) | sAPPα levels secreted by 7W cells [6] |
| --- | --- | --- | --- | --- | --- | --- | --- | --- | --- | --- | --- | --- | --- | --- | --- | --- | --- |
| C=CCc1ccc(O)c(-c2ccc(O)c(CC=C)c2)c1 [Honokiol, 2-(4-hydroxy-3-prop-2-enyl-phenyl)-4-prop-2-enyl-phenol] | penetrates the brain well | ~1 | No significant changes | No significant changes | no significant increase | – | – | – | – | – | – | – | – | – | – | – | – |
| CN1C(=O)CN=C(c2ccccc2)c2cc([N+](=O)[O-])ccc21 [Nimetazepam, 2-methyl-9-nitro-6-phenyl-2,5-diazabicyclo [5.4.0]undeca-5,8,10,12-tetraen-3-one] | – | – | No significant changes | No significant changes | – | known to cross the blood-brain-barrier well | significant increase | increase | – | – | – | – | – | – | – | – | – |
| CCN(CC)C(=S)SSC(=S)N(CC)CC [Disulfiram, 1,1′,1″,1′″-[disulfanediylbis(carbonothioylnitrilo)]tetraethane] | low blood-brain-barrier penetration | < 0.1 | – | – | no changes | – | – | – | no changes | degrades rapidly | 1.5 | 51 | 160 | higher binding affinity | can bind to APP and disrupt APP dimerization | bind to MBP-eAPP230-624 and alter the conformation of the protein | increase |
| CCN(CC)C(=S)SC(=S)N(CC)CC [Sulfiram] | – | – | – | – | – | – | – | – | – | – | 1.7 | 53 | 170 | – | bind to MBP-eAPP230-624 and alter the conformation of the protein | – | – |
